From US20080090848A1, “Substituted Purinyl Derivatives With Immunomodulator And Chemoprotective Activity And Use Alone Or With Medium-Chain Length Fatty Acids Or Glycerides” (priority 2004, published 2008)
Read-outs that look alike come from different tables or passages of the source.

Assays:
hematopoietic cells [1] = assay: Chemoprotection: in vivo protection of hematopoietic cells by compound I in CY-immunosuppressed mice (Example 1); design: species or system C57BL/6 mice; details: for Cell count, peripheral blood white cells / Cell count, spleen red cells / Cell count, spleen white cells: CY 200 mg/kg i.v. day 0, compound I 50 mg/kg i.p. day −3, −2, −1, sacrifice day +5
Method: (§1) Female C57BL/6 mice, 6 to 8 weeks old, were immunosuppressed by treatment with 200 mg/kg of cyclophosphamide (CY) administered intravenously at day 0. To examine the chemoprotective effect of compound I, mice were pre-treated intraperitoneally at day −3, −2 and −1 with 50 mg/kg of the compound. Mice were sacrificed at day +5 by cardiac puncture and cervical dislocation. Then, cell suspensions were prepared from thymus, spleen and bone marrow as follows.
(§2) Tissues were crushed in PBS buffer and contaminating erythrocytes were lysed in ACK buffer (155 mM NH4Cl, 12 mM NaHCO3, 0.1 mM EDTA, pH 7.3) for five minutes. Cells were then collected by centrifugation and washed three times in PBS and resuspended in tissue culture medium. Cells were counted with a Coulter counter.

bone marrow red cells = assay: Chemoprotection: combination of tricaprin and compound I in CY-treated mice, bone marrow red cell count (Example 3); format: in vivo, C57BL/6 mice; details: tricaprin 60.5 mM oral and/or compound I 50 mg/kg peritoneal injection, day −3, −2, −1
Method: as §1, §2
(§3) The effect of tricaprin, compound I, and the combination of both compounds on in vivo induction of hematopoietic cell proliferation or protection was determined following the protocol described in Example 1. Oral administration of tricaprin (60.5 mM) and/or peritoneal injection of compound I were performed on day −3, −2 and −1.

hematopoietic cells [2] = assay: Chemoprotection: in vivo protection of hematopoietic cells by compound II in CY-treated mice (Example 4); design: species or system C57BL/6 mice
Method: as §1, §2
The effect of compound II on in vivo induction of hematopoietic cell proliferation or protection was determined following the protocol described in Example 1. Oral administration of compound II (50 mg/kg or 100 mg/kg) was performed on day −3, −2 and −1.

[3] = test system: bone marrow progenitor cell; assay: Bone marrow progenitor cells (CFU-GEMM) after tricaprin, compound I or both in CY-treated mice (Example 3); format: in vivo, C57BL/6 mice; details: tricaprin 60.5 mM oral and/or compound I 50 mg/kg
Method: as §1, §3

[4] = rat, in vivo, po; cited from earlier work
CTLs = details: compared with interleukin 2; cited from earlier work
hematopoietic cells [5] = assay: Chemoprotection: combination of histamine dihydrochloride and compound I in CY-treated mice (Example 6); format: in vivo, C57BL/6 mice; details: for Effect on bone marrow white cell count (FIG. 5): intravenous histamine dihydrochloride 25 mg/kg and/or compound I 5 mg/kg, day −3, −2, −1, CY-treated mice, compared to CY
Method: (§4) Mice were sacrificed at day +5 by cardiac puncture and cervical dislocation. Then, cell suspensions were prepared from thymus, spleen and bone marrow as follows. Tissues were crushed in PBS buffer and contaminating erythrocytes were lysed in ACK buffer (155 mM NH4Cl, 12 mM NaHCO3, 0.1 mM EDTA, pH 7.3) for five minutes. Cells were then collected by centrifugation and washed three times in PBS and resuspended in tissue culture medium. Cells were counted with a Coulter counter. Effect of low dose of histamine, compound I, and the combination of both compounds on in vivo induction of hematopoietic cell proliferation or protection was undertaken following the protocol described in Example 1.

[6] = cited from earlier work
[7] = i.v., rat; cited from earlier work
MC-38 colon cancer = assay: Survival of mice with MC-38 colon cancer treated with a toxic regimen of 5-fluorouracil; format: in vivo; details: compound I plus toxic regimen of 5-fluorouracil versus 5-fluorouracil alone (e.g., 40 mg/kg)
hematopoietic cells [8] = assay: Chemoprotection: combination of sodium caprate and compound I in CY-treated mice (Example 2); format: in vivo, C57BL/6 mice; details: for Effect on bone marrow red cell count (FIG. 2) / Effect on bone marrow white cell count (FIG. 3): low dose, intravenous: sodium caprate 1.21 mM, compound I 5 mg/kg, sodium caprate or compound I used alone; for Effect on peripheral red blood cell count (FIG. 1): sodium caprate 60.5 mM oral and/or compound I 50 mg/kg i.p., day −3, −2, −1, versus respective CY control
hematopoietic cells [9] = assay: Chemoprotection: combination of histamine dihydrochloride and compound II in CY-treated mice (Example 7); format: in vivo, C57BL/6 mice; details: histamine dihydrochloride 25 mg/kg i.v. and/or compound II 100 mg/kg oral, day −3, −2, −1, compared to CY
Method: as §1, §2
Effect of low dose of histamine, compound II, and the combination of both compounds on in vivo induction of hematopoietic cell proliferation or protection was undertaken following the protocol described in Example 1. Intravenous administration of histamine dihydrochloride (25 mg/kg) and oral administration of compound II (100 mg/kg) were performed on day −3, −2 and −1.

hematopoietic cells [10] = assay: Chemoprotection: combination of sodium caprate and compound II in CY-treated mice (Example 5); format: in vivo, C57BL/6 mice; details: oral sodium caprate 60.5 mM and/or compound II 50 mg/kg or 100 mg/kg, day −3, −2, −1
Method: as §4, with “The effect” for “Effect”, “sodium caprate,” for “low dose of histamine,”, “II,” for “I,”, “determined” for “undertaken”

[11] = CY alone (200 mg/kg i.v. day 0)
[12] = pre-treatment 50 mg/kg i.p. in CY-treated mice, versus CY
[13] = CY + compound II 50 mg/kg oral, day −3, −2, −1
[14] = CY + compound II 100 mg/kg oral, day −3, −2, −1
[15] = oral pre-treatment in CY-treated mice, dose not given

O=P1(N(CCCl)CCCl)NCCCO1 (stereo not shown) [CY, cyclophosphamide, reference compound]
Cell count, peripheral blood white cells (hematopoietic cells [1]): 1.3 ± 0.6 10^6
Cell count, spleen red cells (hematopoietic cells [1]): 341 ± 107 10^6
Cell count, spleen white cells (hematopoietic cells [1]): 34. ± 9 10^6
Bone marrow red cell count (bone marrow red cells): 31.5 ± 3.5 10^6
Cell count, bone marrow red cells (hematopoietic cells [2]; [11]): 31.6 ± 5.0 10^6
Cell count, bone marrow white cells (hematopoietic cells [2]; [11]): 19.8 ± 4.4 10^6
CFU-GEMM (colony number), bone marrow [3]: 1 colony number

CCCCCCCCCC(=O)OCC(COC(=O)CCCCCCCCC)OC(=O)CCCCCCCCC [Tricaprin, tricaprin]
Bone marrow red cell count (bone marrow red cells): 33.8 ± 3.7 10^6
CFU-GEMM (colony number), bone marrow [3]: 0.5 colony number

CCCCCCCC(=O)O [caprylic acid]
LD50 [4]: 10080 mg/kg

CN(C)c1ncnc2c1ncn2CCCCCOC(=O)NC(CCCNC(=N)N)C(=O)O (stereo not drawn) [compound I, [[5-[6-(N,N-dimethylamino)purin-9-yl]pentoxy]-carbonyl]d-arginine]
Cell count, peripheral blood white cells (hematopoietic cells [1]): 2.6 ± 0.6 10^6
Cell count, spleen red cells (hematopoietic cells [1]): 468 ± 104 10^6
Cell count, spleen white cells (hematopoietic cells [1]): 48 ± 5 10^6
Spleen red cell count compared to non-immunosuppressed animals (control) (hematopoietic cells [1]; pre-treatment 50 mg/kg i.p. in CY-treated mice): some treated animals returned to a “baseline level”
Effect on peripheral white blood cell count (in words) (hematopoietic cells [1]; [12]): significant increase
Effect on spleen red cell count (in words) (hematopoietic cells [1]; [12]): significant increase
Effect on spleen white cell count (in words) (hematopoietic cells [1]; [12]): significant increase
Bone marrow red cell count (bone marrow red cells): 37.4 ± 7.1 10^6
In vitro stimulation of CTLs (CTLs): comparable to the immune growth factor or cytokine interleukin 2
Effect on bone marrow white cell count (FIG. 5) (hematopoietic cells [5]): No significant effect
In vivo antitumor activity [6]: significant in vivo antitumor activity
LD50 [7]: more than 500 mg/kg
Survival of animals (MC-38 colon cancer): improved survival
CFU-GEMM (colony number), bone marrow [3]: 1 colony number
Effect on bone marrow red cell count (FIG. 2) (hematopoietic cells [8]): No effect
Effect on bone marrow white cell count (FIG. 3) (hematopoietic cells [8]): No effect
Effect on peripheral red blood cell count (FIG. 1) (hematopoietic cells [8]): significant increase

CN(C)c1ncnc2c1ncn2CCCCCO [compound II]
Cell count, bone marrow red cells (hematopoietic cells [2]; [13]): 29.4 ± 2.7 10^6
Cell count, bone marrow white cells (hematopoietic cells [2]; [13]): 17.4 ± 3.5 10^6
Cell count, bone marrow red cells (hematopoietic cells [2]; [14]): 43.9 ± 16.3 10^6
Cell count, bone marrow white cells (hematopoietic cells [2]; [14]): 30.5 ± 9.4 10^6
Bone marrow red and white cell counts compared to non-immunosuppressed animals (control) (hematopoietic cells [2]; oral pre-treatment in CY-treated mice): some treated animals return to a “baseline level”
Effect on bone marrow red cell count (in words) (hematopoietic cells [2]; [15]): significant increase
Effect on bone marrow white cell count (in words) (hematopoietic cells [2]; [15]): significant increase
Effect on spleen white cell count (FIG. 7) (hematopoietic cells [9]): No significant effect

Cl.Cl.NCCc1c[nH]cn1 [histamine, histamine dihydrochloride]
Stimulation of hematopoiesis (hematopoietic cells [5]; histamine alone, general statement): weakly stimulate hematopoiesis
Effect on bone marrow white cell count (FIG. 5) (hematopoietic cells [5]): No significant effect
Effect on spleen white cell count (FIG. 7) (hematopoietic cells [9]): No significant effect

c1ccc([C@H]2CN3CCSC3=N2)cc1 [levamisole, reference compound]
LD50 [7]: 16 mg/kg

CCCCCCCCCC(=O)[O-].[Na+] [sodium caprate]
Effect on peripheral red blood cell count (FIG. 4) (hematopoietic cells [10]): weak increase
Effect on bone marrow red cell count (FIG. 2) (hematopoietic cells [8]): No effect
Effect on bone marrow white cell count (FIG. 3) (hematopoietic cells [8]): No effect
Effect on peripheral red blood cell count (FIG. 1) (hematopoietic cells [8]): significant increase
